# Experimental data reported in patent publication US8933065B2, “N-benzylamide substituted derivatives of 2-(acylamido)acetic acid and 2-(acylamido)propionic acids: potent neurological agents” (The University of North Carolina at Chapel Hill, priority 2008, dated 2015).
# Like-named read-outs stand apart in the source and are kept apart here.
# Tests used:
# [1] = system: maximal electroshock (MES)-induced seizures; experiment: Maximal electroshock seizure (MES) test, mice (ip); type: in vivo; conditions: for ED50: Mus musculus
# Experimental: (§2) The maximal electroconvulsive shock (MES) test is regarded as a standard screen for anticonvulsant activity in terms of inhibition of seizure spread in generalized tonic-clonic seizures.
# (§3) Groups of at least 8 male albino CF No. 1 mice or male albino Sprague-Dawley rats are treated with 10 mL/kg i.p. or 4 mL/kg p.o. of the test compound solution, respectively. The electrical stimulus in the MES test is 50 mA at 60 Hz for mice and 150 mA at 60 Hz for rats, both delivered for 0.2 sec. Abolition of the hind leg tonic extensor component of the seizure is used as the endpoint.
# 6 Hz seizures = experiment: 6 Hz seizure model, mice (ip); type: in vivo; conditions: for 6 Hz, ED50: mice, ip; for seizure activity in the 6 Hz seizure model assay: comparable to or exceeding phenyloin and phenobarbital
# behavioral toxicity = experiment: Toxicity (behavioral toxicity), rat (po); type: in vivo
# Experimental: (§1) Tests are conducted in groups of at least 8 mice or rats to determine the intrinsic neurotoxicity (neuromuscular impairment) after administration of the test compound by the route of administration to be used in the pharmacology studies. Neurotoxicity is determined in male CF No 1 mice by the rotarod procedure. Inability of the mouse to maintain its equilibrium in 3 trials during 1 min on this rotating rod (6 rpm) is used as an indication of such impairment. In Sprague-Dawley rats, minimal motor impairment (MMI) is determined by overt evidence of ataxia, abnormal gait, and stance.
# [2] = system: neurologic toxicity (rotorod test); experiment: Neurologic toxicity, rotorod test, mice (ip); type: in vivo
# Experimental: as §1
# [3] = system: maximal electroshock (MES)-induced seizures; experiment: Maximal electroshock seizure (MES) test, rat (po); type: in vivo; conditions: for MES, ED50: rat, time (h) in brackets, Table 2; for ED50: Rattus norvegicus
# Experimental: as §2, §3
# [4] = system: maximal electroshock (MES)-induced seizures; conditions: rat, po; Table 3, Ref 16, 32; cited from earlier work
# [5] = system: maximal electroshock (MES)-induced seizures; conditions: mice, ip; Table 3, Ref 30, 16, 32; cited from earlier work
# [6] = mice, ip, 95% confidence intervals in parentheses, Table 1
# [7] = mice, ip, time (h) in brackets, (X′—Y′—Z′ group)
# [8] = mice, ip, time (h) in brackets, (terminal ring group)
# [9] = mice, ip, time (h) in brackets, Table 3, NINDS ASP
# [10] = behavioral toxicity, Table b607
# [11] = behavioral toxicity, Table b608
# [12] = mice, ip, time (h) in brackets, Table 2, footnotes not given
# [13] = read-out: MES, ED50, rat, po, Table 3
# [14] = rotorod test, time of peak effect (h) in brackets, Table 2
compound,measurement,setting,value
"CC(=O)NC(C)C(=O)NCc1ccccc1 (racemic) [(R,S)-4, reference compound]","MES, ED50",[1]; [6],77 (67-89) mg/kg
"C#CCOC[C@@H](NC(C)=O)C(=O)NCc1ccccc1 [(R)-7, (R)—N-Benzyl-2-acetamido-3-(prop-2-ynyloxy)propanamide]",melting point,,149 °C
"CCOCC(NC(C)=O)C(=O)NCc1ccccc1 (racemic) [(R,S)-10, reference compound]","MES, ED50","[1]; mice, ip",17 mg/kg
C#CCOC[C@@H](NC(C)=O)C(=O)NCc1ccc(N=C=S)cc1,melting point,,157 to 159 °C
"COC[C@@H](NC(C)=O)C(=O)NCc1ccc([N+](=O)[O-])cc1 [F, reference compound]",ED50,"[1]; mice (ip), text b213",100 to 300 mg/kg
"COC[C@@H](NC(C)=O)C(=O)NCc1ccc(OCc2cccc(F)c2)cc1 [(R)-10, (R)-2-Acetamido-N-(4-(3-fluorobenzyloxy)benzyl)-3-methoxypropanamide]","6 Hz, ED50",6 Hz seizures; Table 3,~10 [0.25] milligrams per kilogram
same,"6 Hz, ED50",6 Hz seizures; Table b607,~10 [0.25] milligrams per kilogram
same,"6 Hz, ED50",6 Hz seizures; Table b608,~10 [0.25] milligrams per kilogram
same,"MES, ED50",[1]; [7],13 [0.25] milligrams per kilogram
same,"MES, ED50",[1]; [8],13 [0.25] milligrams per kilogram
same,"MES, ED50",[1]; [9],13 [0.25] milligrams per kilogram
same,"Tox, TD50","behavioral toxicity; behavioral toxicity, Table 3",>500 [0.5] milligrams per kilogram
same,"Tox, TD50",behavioral toxicity; [10],>500 [0.5] milligrams per kilogram
same,"Tox, TD50",behavioral toxicity; [11],>500 [0.5] milligrams per kilogram
same,"Tox, TD50","behavioral toxicity; time (h) in brackets, Table 2",> 280 mg/kg
same,"Tox, TD50","[2]; rotorod test, Table 3",26 [0.5] milligrams per kilogram
same,"Tox, TD50","[2]; rotorod test, Table b607",26 [0.5] milligrams per kilogram
same,"Tox, TD50","[2]; rotorod test, Table b608",26 [0.5] milligrams per kilogram
same,"MES, ED50",[3],4.9 [1]
"COC[C@@H](NC(C)=O)C(=O)NCc1ccc(OCc2ccccc2)cc1 [(R)-20, (R)—N-4′-(Benzyloxy)benzyl 2-N-Acetamido-3-methoxypropionamide]","MES, ED50",[1]; [8],5.8 [0.25] (4.4-7.2) milligrams per kilogram
same,"Tox, TD50",behavioral toxicity; [11],>250 [1.0] milligrams per kilogram
same,"Tox, TD50","[2]; rotorod test, Table b608",22 [0.25] (19- milligrams per kilogram
"COC[C@@H](NC(C)=O)C(=O)NCc1ccc(COc2cccc(F)c2)cc1 [(R)-16, (R)—N-4-((3-Fluorophenoxy)methyl)benzyl 2-Acetamido-3-methoxypropionamide]","MES, ED50",[1]; [7],5.9 [0.25] milligrams per kilogram
same,"Tox, TD50",behavioral toxicity; [10],>400 [0.5] milligrams per kilogram
same,"Tox, TD50","[2]; rotorod test, Table b607",10 [0.25] milligrams per kilogram
same,ED50,"[3]; read-out: MES, ED50, rat, po",19 mg/kg
COC[C@@H](NC(C)=O)C(=O)NCc1ccc(CCc2cccc(F)c2)cc1 [(R)-13],"Tox, TD50",behavioral toxicity; [10],>30 [1] milligrams per kilogram
same,ED50,"[3]; read-out: MES, ED50, rat, po",< 30 mg/kg
"COC[C@H](NC(C)=O)C(=O)NCc1ccc(OCc2cccc(F)c2)cc1 [(S)-3, (S)-2-Acetamido-N-(4-(3-fluorobenzyloxy)benzyl)-3-methoxypropanamide]","Tox, TD50","[2]; time (h) in brackets, Table 2",>300 [0.5]
COC[C@@H](NC(C)=O)C(=O)NCc1ccc(C2(C(F)(F)F)N=N2)cc1 [(R)-9],ED50,[1]; [12],15.1 mg/kg
"CC(=O)NCC(=O)NCc1ccc(OCc2cccc(F)c2)cc1 [compound 5, N-4-(3-Fluorobenzyloxy)benzyl 2-Acetamidoacetamide]","Tox, TD50","behavioral toxicity; behavioral toxicity, Table 3",>500 [1.0] milligrams per kilogram
same,"Tox, TD50","[2]; rotorod test, Table 3",>300 [0.5 and 4.0] milligrams per kilogram
same,ED50,[3]; [13],31 mg/kg
"C#CCOC[C@H](NC(C)=O)C(=O)NCc1ccc(N=[N+]=[N-])cc1 [(S)-8, (S)—N-(4-Azidobenzyl)-2-acetamido-3-(prop-2-ynyloxy)propanamide]","Tox, TD50","behavioral toxicity; time (h) in brackets, Table 2",>30 mg/kg
same,"Tox, TD50",[2]; [14],>300 mg/kg
same,melting point,,135 to 136.5 °C
C#CCOCC(NC(C)=O)C(=O)NCc1ccccc1 (stereo not shown) [compound 7],seizure activity in the 6 Hz seizure model assay,6 Hz seizures,excellent seizure activity
"COC[C@@H](NC(C)=O)C(=O)NCc1ccc(/C=C/c2cccc(F)c2)cc1 [(R)-14, (2-R,E)-N-4-(3-Fluorostyryl)benzyl 2-Acetamido-3-methoxypropionamide]","6 Hz, ED50",6 Hz seizures; Table b607,<30 [0.25] milligrams per kilogram
same,"Tox, TD50",behavioral toxicity; [10],">30 [0.25, 4.0] milligrams per kilogram"
same,ED50,"[3]; read-out: MES, ED50, rat, po",~30 mg/kg
"COC[C@@H](NC(C)=O)C(=O)NCc1ccc(Oc2cccc(F)c2)cc1 [(R)-12, (R)—N-4′-((3″-Fluoro)phenoxy)benzyl 2-N-Acetamido-3-methoxypropionamide]","6 Hz, ED50",6 Hz seizures; Table b607,~10 [0.5] milligrams per kilogram
same,"MES, ED50",[1]; [7],5.5 [0.25] (3.2-6.3) milligrams per kilogram
same,"Tox, TD50",behavioral toxicity; [10],>10 [0.25-4.0] milligrams per kilogram
same,"Tox, TD50","[2]; rotorod test, Table b607",23 [0.25] (18-28) milligrams per kilogram
same,ED50,"[3]; read-out: MES, ED50, rat, po",< 10 mg/kg
"COC[C@@H](NC(C)=O)C(=O)NCc1ccccc1 [(R)—B, (2R)-2-(acetylamino)-N-benzyl-3-methoxypropanamide, reference compound]","Tox, TD50","behavioral toxicity; time (h) in brackets, Table 2",> 500 mg/kg
C#CCOCC(NC(C)=O)C(=O)NCc1ccc(N=[N+]=[N-])cc1 (stereo not shown) [compound 8],seizure activity in the 6 Hz seizure model assay,6 Hz seizures,excellent seizure activity
"CC(=O)N[C@@H](C)C(=O)NCc1ccc(OCc2cccc(F)c2)cc1 [(S)-6, (S)—N-4-(3-Fluorobenzyloxy)benzyl 2-Acetamidopropionamide, reference compound]","Tox, TD50","behavioral toxicity; behavioral toxicity, Table 3",>30 [0.25 to milligrams per kilogram
same,"Tox, TD50","[2]; rotorod test, Table 3",>300 [0.5] milligrams per kilogram
same,ED50,[3]; [13],> 30 mg/kg
"C#CCOC[C@H](NC(C)=O)C(=O)NCc1ccccc1 [(S)-7, (S)—N-Benzyl-2-acetamido-3-(prop-2-ynyloxy)propanamide]","Tox, TD50","behavioral toxicity; time (h) in brackets, Table 2",>30 mg/kg
same,"Tox, TD50",[2]; [14],>300 mg/kg
same,melting point,,148.5 to 149 °C
"CC(=O)NC(C(=O)NCc1ccc(C)cc1)c1ccccc1 (stereo not shown) [D, reference compound]",ED50,"[1]; mice (ip), text b213",~300 mg/kg
CCCC(CCC)C(=O)O [valproate],"MES, ED50",[4],490 [0.5] milligrams per kilogram
same,"MES, ED50",[1]; [12],270 [0.25]
same,"MES, ED50",[5],270 [0.25] milligrams per kilogram
same,"MES, ED50",[3],490 [0.5]
"CC(=O)NC(C(=O)NCc1ccccc1)c1ccccc1 (racemic) [(R,S)-6, reference compound]","MES, ED50",[1]; [6],32 mg/kg
"C#CCOC[C@H](NC(C)=O)C(=O)NCc1ccc(N=C=S)cc1 [(S)-9, (S)—N-(4-Isothiocyanatobenzyl)-2-acetamido-3-(prop-2-ynyloxy)propanamide]","Tox, TD50",[2]; [14],>300 mg/kg
same,melting point,,157 to 158 °C
"C=CCOCC(NC(C)=O)C(=O)NCc1ccccc1 (racemic) [(R,S)-11, reference compound]","MES, ED50","[1]; mice, ip",">30, <100 mg/kg"
"COC[C@@H](NC(C)=O)C(=O)NCc1ccc(COCc2cccc(F)c2)cc1 [(R)-18, (R)—N-4-(((3-Fluoro)benzyloxy)methyl)benzyl 2-Acetamido-3-methoxypropionamide]",melting point,,140 to 142 °C
"C#CCOC[C@@H](NC(C)=O)C(=O)NCc1ccc(N=[N+]=[N-])cc1 [(R)-8, (R)—N-(4-Azidobenzyl)-2-acetamido-3-(prop-2-ynyloxy)propanamide]",melting point,,135 to 136 °C
"COC[C@H](NC(C)=O)C(=O)NCc1ccc(OCc2cccc(F)c2)cc1 [(S)-10, (S)-2-Acetamido-N-(4-(3-fluorobenzyloxy)benzyl)-3-methoxypropanamide]","MES, ED50",[1]; [9],>300 milligrams per kilogram
same,"Tox, TD50","[2]; rotorod test, Table 3",>300 milligrams per kilogram
"CC(=O)N[C@@H](C)C(=O)NCc1ccccc1 [(S)-4, reference compound]","MES, ED50",[1]; [6],550 (460-740) mg/kg
same,"MES, ED50",[5],8.0 milligrams per kilogram
"CC(=O)NC(C(=O)NCc1ccccc1)c1ccco1 (racemic) [(R,S)-5, reference compound]","MES, ED50",[1]; [6],10 (9.1-12) mg/kg
"COC[C@@H](NC(C)=O)C(=O)NCc1ccc(N=[N+]=[N-])cc1 [(R)-5, (R)—N-(4-Azidobenzyl)-2-acetamido-3-methoxypropanamide, reference compound]","Tox, TD50","behavioral toxicity; time (h) in brackets, Table 2",> 250 mg/kg
"COC[C@H](NC(C)=O)C(=O)NCc1ccc(N=[N+]=[N-])cc1 [(S)-5, (S)—N-(4-Azidobenzyl)-2-acetamido-3-methoxypropanamide, reference compound]","Tox, TD50","behavioral toxicity; time (h) in brackets, Table 2",> 30 mg/kg
"CC(=O)NC(C(=O)NCc1ccc(OCc2cccc(F)c2)cc1)c1ccccn1 (racemic) [(R,S)-9, N-4-(3-Fluorobenzyloxy)benzyl 2-Acetamido-2-(pyridin-2-yl)acetamide]","MES, ED50",[1]; [9],28 [0.5] (20-36) milligrams per kilogram
same,"Tox, TD50","behavioral toxicity; behavioral toxicity, Table 3",>30 [4] milligrams per kilogram
same,ED50,[3]; [13],> 30 mg/kg
"COC[C@@H](NC(C)=O)C(=O)NCc1ccc(OCc2ccc(F)cc2)cc1 [(R)-22, (R)—N-4-(4-Fluorobenzyloxy)benzyl 2-Acetamido-3-methoxypropionamide]","Tox, TD50",behavioral toxicity; [11],>500 milligrams per kilogram
"COC[C@@H](NC(C)=O)C(=O)NCc1ccc(OCc2ccccc2F)cc1 [(R)-21, (R)—N-4-(2-Fluorobenzyloxy)benzyl 2-Acetamido-3-methoxypropionamide]","MES, ED50",[1]; [8],6.7 [0.25] (4.8-9.1) milligrams per kilogram
same,"Tox, TD50",behavioral toxicity; [11],>500 milligrams per kilogram
same,"Tox, TD50","[2]; rotorod test, Table b608",37 [0.5] (29-48) milligrams per kilogram
"COC[C@H](NC(C)=O)C(=O)NCc1ccccc1 [(S)—B, reference compound]","Tox, TD50","[2]; time (h) in brackets, Table 2",>300 [0.5]
